Experimental data as given in US20240199604A1, “SUPRAMOLECULAR POLYMER THERAPEUTICS AND DIAGNOSTICS” (The Regents of the University of California, priority 2022, published 2024).

System: tau paired-helical filaments (PHFs)
Assay: Cryo-EM co-structure with Alzheimer's disease tau paired helical filaments
Assay type: binding, human
Settings: AD tau PHF incubated with 20 uM GTP-1, cryo-EM
Procedure: Samples were incubated with 20 uM GTP-1 prior to vitrification. […] The micrograph images and their 2D classification reveal well-resolved filaments primarily in the PHF conformation, with crossover distances ranging from 700-800 Å. A minor population of straight filaments (SF) was also identified; however, further structural characterization was not feasible due to limited abundance. […] The PHF structure is comprised of two protofilaments related by two-fold symmetry with a 2.37 Å rise and 179.450 twist, consistent with previously reported structures of PHFs prepared from AD brains (13, 15). […]
Cryo-EM sample preparation and data collection. […] For the tau PHF, 3 μL of purified filaments mixed with GTP-1 was added to a glow-discharged 200 mesh 1.2/1.3R Au Quantifoil grid for 10 seconds before blotting for 2 seconds, and then a second 3 μL aliquot was added for 3 seconds and blotted for 1 second before being plunge frozen in liquid ethane using a FEI Vitrobot Mark IV (Thermo Fisher Scientific). For the synuclein ligands, 3 μL of purified filaments mixed with compound was added to a 200 mesh 1.2/1.3R Au Quantifoil grid coated with a 2 nm thick layer of carbon, which had not been glow discharged. […]

Row | SMILES | binding site on tau filament
1 | [2H]C([2H])([18F])CC1CCN(c2ccn3c(n2)nc2ccccc23)CC1 [GTP-1] | bound to a solvent exposed cleft (residues 351-360)

Target: T1, α-synuclein fibrils isolated from an MSA patient sample (Homo sapiens, UniProt P37840)
T1 construct: fresh-frozen tissue from the cerebellum of patients clinically and neuropathologically diagnosed with MSA; from tissue; host or cells: cerebellum of MSA patients (sarkosyl-insoluble fraction)
Assay: Cryo-EM co-structure with α-synuclein fibrils from MSA patient samples
Assay type: binding
Settings: fibrils from MSA patient sample, cryoelectronic microscopy
Procedure: MSA filament purification. Filament purification was based on Schweigenhauser et al., 2020^2. Briefly, 1-2 g of fresh-frozen tissue from the cerebellum of patients clinically and neuropathologically diagnosed with MSA was homogenized at 20 mL/g of tissue in 10 mM Tris-HCl (pH 7.4), 800 mM NaCl, 1 mM EGTA, and 10% sucrose. A final concentration of 1% N-laurosarcosinate (w/v) was added to the homogenates, and these mixtures were incubated at 37° C. for 30 minutes. Homogenates were then centrifuged at 10,000 g for 10 minutes, and the supernatant was kept and then centrifuged at 100,000 g for 20 minutes. The pellets were resuspended at 500 μL/g of frozen tissue in 10 mM Tris-HCl (pH 7.4), 800 mM NaCl, 1 mM EGTA, and 10% sucrose. This was followed by another centrifugation at 3,000 g for 5 minutes. The supernatant was kept and diluted threefold with 50 mM Tris-HCl (pH 7.4), 150 mM NaCl, 10% sucrose, and 2% sarkosyl, followed by another centrifugation at 150,000 g for 1 hour. The final pellet resuspended in 30 mM Tris-HCl (pH 7.4) at a concentration of […] frozen tissue.
Cryo-EM sample preparation and data collection. Purified frontal cortex and cerebellum tissue was incubated with 20 μM ligand for 45 minutes prior to freezing. For the tau PHF, 3 μL of purified filaments mixed with GTP-1 was added to a glow-discharged 200 mesh 1.2/1.3R Au Quantifoil grid for 10 seconds before blotting for 2 seconds, and then a second 3 μL aliquot was added for 3 seconds and blotted for 1 second before being plunge frozen in liquid ethane using a FEI Vitrobot Mark IV (Thermo Fisher Scientific). For the synuclein ligands, 3 μL of purified filaments mixed with compound was added to a 200 mesh 1.2/1.3R Au Quantifoil grid coated with a 2 nm thick layer of carbon, which had not been glow discharged. After 30 seconds, grids were blotted for 7.5 seconds at room temperature and 100% humidity. Grids were plunge frozen in liquid ethane using a FEI Vitrobot Mark IV. […] A defocus range of 0.8 to 1.8 μm was used with a total exposure time of 2.024 seconds fractionated into 0.025 seconds subframes. The total dose for each movie was 46 electrons/Å^2. Movies were motion-corrected using MotionCor2^3 in Scipion^4 and were Fourier cropped by a factor of 2 to a final pixel size of 0.834 Å per pixel.
Image processing. All image processing was done in RELION 4^5, and the same workflow was used for each dataset. Dose-weighted summed micrographs were imported into RELION 4. The contrast transfer function was estimated using CTFFIND-4.1^6. Filaments were manually picked and then segments were extracted with a box size of 900 pixels downscaled to 300 pixels. Contaminants and segments contributing to straight filaments were separated out using reference-free 2D class averaging. The remaining segments were re-extracted with a box size of 288 pixels without downscaling. An initial model was generated from a cylinder in RELION. One or more rounds of 3D classification with image alignment were performed, with helical rise and […] parameters fixed to eliminate obvious junk particles. One or more rounds of 3D auto-refinement was run using the best map from 3D classification low-pass filtered to 10 Å, allowing rise and twist parameters to vary. Maps were sharpened using the standard post-processing procedures in RELION.
Model building, refinement, and analysis. Prior to ligand placement, a single strand of a previously solved MSA or tau PHF filament stutr^2 (PDB: 6XYQ) was refined against the density using Phenix^7. Refinement of the ligand binding pocket was done in COOT^8. Ligands were placed by hand in the density using Chimera^9. This model was then translated to give a stack spanning 5 rungs.

Row | SMILES | co-structure of supramolecular polymeric inhibitor with α-synuclein fibrils
2 | O=C(Cn1cc(-c2ccoc2)c(=O)c2ccc(N3CCCC3)cc21)Nc1ccccc1C(F)(F)F [Compound 149, 2-[3-(furan-3-yl)-4-oxo-7-(pyrrolidin-1-yl)-1,4-dihydroquinolin-1-yl]-N-[2-(trifluoromethyl)phenyl]acetamide] | bound to fibrils isolated from an MSA patient sample
3 | O=c1nc2c(ccn2C(F)(F)F)cn1-c1nc(-c2ccnc(C3CC3)n2)oc1-c1ccc(F)cc1 [compound 293] | bound to fibrils isolated from an MSA patient sample
4 | CNc1nc(=O)n(-c2nc(-c3cccc(Cl)c3)oc2-c2ccc(Cl)c(F)c2)cc1F [Compound 125, 1-(5-(4-chloro-3-fluorophenyl)-2-(3-chlorophenyl)oxazol-4-yl)-5-fluoro-4-(methylamino)pyrimidin-2 (1H)-one] | bound to fibrils isolated from an MSA patient sample
5 | CNc1nc(=O)n(-c2nc(-c3cc(C)cc(C)n3)oc2-c2ccc(F)c(F)c2)cc1F [compound 294] | bound to fibrils isolated from an MSA patient sample
6 | CNC(=O)c1ncc2c(-c3ccnc(C(C)(F)F)n3)nn(-c3ccc(Cl)cc3)c2n1 [Compound 22, 1-(4-chlorophenyl)-3-(2-(1,1-difluoroethyl)pyrimidin-4-yl)-N-methyl-1H-pyrazolo[3,4-d]pyrimidine-6-carboxamide] | bound to fibrils isolated from an MSA patient sample
7 | CNc1nc(=O)n(-c2nc(-c3cccc(C)c3)oc2-c2ccc(Cl)c(F)c2)cc1F [Compound 83, 1-(5-(4-chloro-3-fluorophenyl)-2-(m-tolyl)oxazol-4-yl)-5-fluoro-4-(methylamino)pyrimidin-2 (1H)-one] | bound to fibrils isolated from an MSA patient sample
8 | Cc1nccc2cc(-c3nc(-n4ccc5cccnc5c4=O)c(-c4ccc(C(F)(F)F)cc4)o3)ccc12 [compound 427] | bound to fibrils isolated from an MSA patient sample

Same assay, conditions: α-synuclein fibril from an MSA patient, SEQ ID NO: 9

Row | binding site on α-synuclein fibril | SMILES
9 | bound to residues 86-99 | CNC(=O)c1ncc2c(-c3ccnc(C(C)(F)F)n3)nn(-c3ccc(Cl)cc3)c2n1 [Compound 22, 1-(4-chlorophenyl)-3-(2-(1,1-difluoroethyl)pyrimidin-4-yl)-N-methyl-1H-pyrazolo[3,4-d]pyrimidine-6-carboxamide]
